Experimental data reported in US10024856B2, “Identification and characterization of a peptide affinity reagent for the detection of noroviruses in clinical samples” (priority 2013, dated 2018).

Test system: NV-VLP
Conditions: 0-5 μg NV-VLP adsorbed on 96-well plate; 5×10^10 pfu of phage; HRP-conjugated M13 phage antibody
Description: NV-VLP (5, 2.5, 1.25, 0.63 μg) or 5 μg of unrelated protein BSA was immobilized and binding of each phage, indicated on the X-axis, was detected by M13 phage antibody. OD450 signal is indicated on the Y-axis.
Enzyme-linked immunosorbent assay (ELISA)—Initial ELISA experiments were performed by directly coating 0-5 μg of NV-VLP in 96-well polystyrene plates overnight. Wells were blocked with 2% milk in PBS for 2 hours at room temperature. After washing 3 times with PBS, 1×10^11 phage in 1% milk-PBS were added and incubated at room temperature with gentle rocking for 2 hours. Plates were washed 10 times with PBS-T. HRP-conjugated M13-antibody (Pharmacia Biotech) was diluted 1:5000 in 1% milk PBS and 100 μl was added to each well and incubated at room temperature for 45 minutes. After washing with PBS-T, HRP substrate, 3,3′,5′-tetramethylbenzidine (TMB)(KPL) was added to each well. Development was allowed to proceed for 10-20 minutes and stopped with 1M H3PO4 (KPL). Optical density was measured at 450 nm on a Tecan infinite M200pro plate reader.
The binding of each phage clone to immobilized NV-VLP was tested by phage ELISA. For these experiments, 0-5 μg of NV-VLP or bovine serum albumin (BSA), as a negative control, was adsorbed onto a 96-well plate and 5×10^10 pfu of phage were added to each well and binding was detected with an HRP-conjugated M13 phage antibody (FIG. 1).

Sequence of NV-VLP (Q83884 whole entry): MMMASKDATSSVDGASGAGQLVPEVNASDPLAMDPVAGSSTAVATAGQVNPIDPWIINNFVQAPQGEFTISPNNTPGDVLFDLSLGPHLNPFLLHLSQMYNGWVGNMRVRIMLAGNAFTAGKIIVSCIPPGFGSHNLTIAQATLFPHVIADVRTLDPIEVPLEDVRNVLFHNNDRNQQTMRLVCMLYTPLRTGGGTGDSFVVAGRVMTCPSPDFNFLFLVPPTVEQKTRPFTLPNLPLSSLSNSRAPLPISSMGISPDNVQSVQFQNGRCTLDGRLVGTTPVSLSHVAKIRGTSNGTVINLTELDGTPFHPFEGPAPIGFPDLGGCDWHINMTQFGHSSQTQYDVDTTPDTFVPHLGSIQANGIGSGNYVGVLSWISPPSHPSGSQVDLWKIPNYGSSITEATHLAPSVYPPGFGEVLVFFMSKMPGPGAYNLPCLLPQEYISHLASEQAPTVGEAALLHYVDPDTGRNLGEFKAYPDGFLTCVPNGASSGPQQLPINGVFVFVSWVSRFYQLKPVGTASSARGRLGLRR

## IQYRSWIPFSYP [NV-O-R5-6]
  Binding to immobilized NV-VLP (ELISA signal, OD450): weakest signals
